Literature values as cited in US9849196B2, “Methods and compositions for altering photophysical properties of fluorophores via proximal quenching” (Cornell University, priority 2009, dated 2017).

Details: background statement

solubility in aqueous solutions | Compound
highly insoluble | C1=CC=CC=CC=C1 [COT, cyclooctatetraene]
highly insoluble | O=[N+]([O-])c1ccc(CO)cc1 [NBA, p-nitrobenzyl alcohol]
highly insoluble | Cc1c(C)c2c(c(C)c1O)CCC(C)(C(=O)O)O2 (stereo not drawn) [Trolox]
